IC50 data for ten molecules are collected here from patent publication US20250215030A1, “STAT MODULATORS AND USES THEREOF” (Recludix Pharma, Inc., priority 2022, published 2025).

In experiment [1] the target is T1, pSTAT6 (pY641-STAT6) (Homo sapiens, UniProt P42226).
T1 construct: host or cells: cryopreserved PBMC
T1 sequence (P42226 1-847): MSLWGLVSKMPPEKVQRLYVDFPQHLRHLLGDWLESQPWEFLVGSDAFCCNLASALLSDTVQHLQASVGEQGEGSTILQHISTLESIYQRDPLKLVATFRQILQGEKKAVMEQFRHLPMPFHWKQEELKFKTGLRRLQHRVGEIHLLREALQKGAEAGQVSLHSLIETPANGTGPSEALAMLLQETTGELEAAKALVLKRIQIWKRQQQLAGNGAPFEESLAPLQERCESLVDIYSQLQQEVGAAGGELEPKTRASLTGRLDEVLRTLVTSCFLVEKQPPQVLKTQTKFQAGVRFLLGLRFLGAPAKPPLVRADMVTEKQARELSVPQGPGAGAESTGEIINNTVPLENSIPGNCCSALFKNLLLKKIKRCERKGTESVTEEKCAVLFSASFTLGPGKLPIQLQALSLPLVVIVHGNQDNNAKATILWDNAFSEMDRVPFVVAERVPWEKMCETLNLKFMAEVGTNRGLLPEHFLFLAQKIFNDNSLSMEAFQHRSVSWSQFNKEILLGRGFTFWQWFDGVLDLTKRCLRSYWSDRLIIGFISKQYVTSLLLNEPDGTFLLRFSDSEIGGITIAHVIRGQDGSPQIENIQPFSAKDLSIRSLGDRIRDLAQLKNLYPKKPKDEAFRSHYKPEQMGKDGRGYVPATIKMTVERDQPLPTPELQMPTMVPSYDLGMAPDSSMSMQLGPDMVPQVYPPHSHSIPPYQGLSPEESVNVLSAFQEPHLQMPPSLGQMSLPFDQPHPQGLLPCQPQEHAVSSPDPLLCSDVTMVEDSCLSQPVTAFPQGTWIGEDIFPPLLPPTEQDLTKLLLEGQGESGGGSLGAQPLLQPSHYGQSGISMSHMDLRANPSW
The experiment can be described thus: MSD-pSTAT-PBMC Assay (pSTAT6, IL-4 stimulated). The class given is cell-based. Particulars: compound 3 hrs, then 1 ng/mL IL-4 for 10 min. The source says:
Cryopreserved Peripheral Blood Mononuclear Cells (PBMC) are from AllCells. Recombinant Human IL-4 and IL-6 are from Peprotech. Mouse monoclonal anti-STAT3 antibody, rabbit monoclonal anti-pY705-STAT3 antibody, rabbit monoclonal Anti-pY641-STAT6 antibody, and lysis buffer are from Cell Signaling Technology (CST). Mouse monoclonal anti-STAT6 antibody is from BioLegend. Assay plates, blocker, and anti-rabbit secondary antibody are from Meso Scale Discovery (MSD).
Cryopreserved PBMCs were thawed out and allowed to recover overnight in IMDM+10% heat-inactivated FBS prior to plating 50,000 (STAT3) or 25,000 (STAT6) cells per well in 96-well U-bottom tissue culture plates. Cells were treated with compound for 3 hrs, then stimulated with 10 ng/mL IL-6 (STAT3) or 1 ng/mL IL-4 (STAT6) for 10 min. Cells were then spun down and washed with ice-cold PBS prior to lysing the cell pellet with 1× lysis buffer (CST) with 1× HALT protease and phosphatase inhibitor cocktail (Thermo). Lysates were transferred to and incubated overnight at 4° C. with shaking in QuickPlex 96-well high bind assay plates (MSD) pre-coated overnight with 30 μL per well of 0.6 μg/mL mouse monoclonal anti-STAT3 antibody (STAT3) or 2 μg/mL mouse monoclonal anti-STAT6 antibody (STAT6) in 1×PBS, and pre-blocked for 1 hour with 3% Blocker-A (MSD). Captured protein in the assay plates were then washed and probed with 25 μL per well of 0.25 μg/ml rabbit monoclonal anti-pY705-STAT3 antibody (STAT3) or 0.18 μg/ml rabbit monoclonal Anti-pY641-STAT6 antibody (STAT6) in 1% Blocker-A for 1 hour at room temperature with shaking, then washed and probed with 25 ul per well of 1 ug/mi Sulfo-TAG Labeled Goat Anti-Rabbit Antibody (MSD) in 1% Blocker-A for 1 hour at room temperature with shaking. Assay plates were then washed and 150 μL of 1× Read Buffer-T (MSD) was added to each well prior to reading on an SQ120 MSD Plate Reader. Assay signal from each sample was subtracted by the signal from unstimulated control wells and normalized to DMSO control wells. IC50 values were calculated using Graph Pad Prism Dose-Response Nonlinear Regression with variable slope. For both pSTAT3 and pSTAT6 A=≤100 nM; B=>100-1000 nM; C=>1000-3000 nM; and D=>3 μM.

Experiment [2] deals with T2, pSTAT3 (pY705-STAT3) (Homo sapiens, UniProt P40763).
T2 construct: host or cells: cryopreserved PBMC
The experiment can be described thus: MSD-pSTAT-PBMC Assay (pSTAT3, IL-6 stimulated). Format: cell-based. Particulars: PBMC, compound 3 hrs, then 10 ng/mL IL-6 for 10 min; MSD pY705-STAT3; read-out: pSTAT3. A digest of the protocol:
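Phospho-STAT levels captured on anti-STAT3 or anti-STAT6 plates and detected with anti-pY705 or anti-pY641 antibodies (MSD read-out). Cryopreserved human PBMCs received compound for 3 h before a 10 min pulse of IL-6 (10 ng/mL, STAT3) or IL-4 (1 ng/mL, STAT6). IC50 fitted after unstimulated-background subtraction and DMSO normalization.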

T2 sequence (P40763 whole entry): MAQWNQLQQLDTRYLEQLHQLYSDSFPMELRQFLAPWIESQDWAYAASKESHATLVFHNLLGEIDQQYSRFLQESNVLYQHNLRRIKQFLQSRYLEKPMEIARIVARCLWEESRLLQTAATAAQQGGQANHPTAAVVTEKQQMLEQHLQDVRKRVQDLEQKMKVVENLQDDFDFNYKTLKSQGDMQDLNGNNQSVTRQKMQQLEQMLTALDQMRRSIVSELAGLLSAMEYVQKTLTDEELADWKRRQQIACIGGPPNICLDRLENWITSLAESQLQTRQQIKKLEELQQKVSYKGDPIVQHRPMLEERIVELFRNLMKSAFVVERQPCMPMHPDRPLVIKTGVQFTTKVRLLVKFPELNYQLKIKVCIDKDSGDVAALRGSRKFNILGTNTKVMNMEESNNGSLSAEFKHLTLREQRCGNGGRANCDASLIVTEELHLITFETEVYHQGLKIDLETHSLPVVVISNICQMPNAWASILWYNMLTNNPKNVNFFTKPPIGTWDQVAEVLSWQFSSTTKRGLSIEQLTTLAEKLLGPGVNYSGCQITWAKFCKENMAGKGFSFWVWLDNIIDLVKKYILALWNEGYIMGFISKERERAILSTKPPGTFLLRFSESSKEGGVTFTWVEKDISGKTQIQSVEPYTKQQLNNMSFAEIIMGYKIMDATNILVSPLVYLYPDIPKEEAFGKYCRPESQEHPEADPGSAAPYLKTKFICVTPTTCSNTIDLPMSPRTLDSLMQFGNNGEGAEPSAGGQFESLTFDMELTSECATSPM

As to `CC(C)(O)CC(=O)SCCOP(=O)(OCCSC(=O)CC(C)(C)O)C(F)(F)c1ccc2sc(C(=O)NC3CC4CC4CC4CCC(C(=O)N5CC(n6ccnc6)C5)N4C3=O)cc2c1` [Compound 136, S,S′-(((((2-(((3S,6S,7aS, 8aR,9aR)-3-(3-(1H-imidazol-1-yl)azetidine-1-carbonyl)-5-oxodecahydro-1H-cyclopropa[d]pyrrolo[1,2-a]azocin-6-yl)carbamoyl)benzo[b]thiophen-5-yl)difluoro-methyl)phosphoryl)bis(oxy))bis (ethane-2,1-diyl))bis(3-hydroxy-3-methylbutane thioate)], the IC50 was above 3000 nM in experiment [1] and 1000 to 3000 nM in experiment [2].
Consider `CC(C)(CO)C(=O)SCCOP(=O)(OCCSC(=O)C(C)(C)CO)C(F)(F)c1ccc2sc(C(=O)N[C@H]3C[C@@H]4C[C@@H]4C[C@H]4CC[C@@H](C(=O)N5CC(n6ccnc6)C5)N4C3=O)cc2c1` [Compound 137, S,S′-(((((2-(((3S,6S,7aS, 8aR,9aR)-3-(3-(1H-imidazol-1-yl)azetidine-1-carbonyl)-5-oxodecahydro-1H-cyclopropa[d]pyrrolo[1,2-a]azocin-6-yl)carbamoyl)benzo[b]thiophen-5-yl)difluoro-methyl)phosphoryl)bis (oxy))bis(ethane-2,1-diyl))bis(3-hydroxy-2,2-dimethylpro-panethioate)], for which the IC50 is above 3000 nM in experiment [1] and 1000 to 3000 nM in experiment [2].
For the molecule `CCCC(=O)SCCOP(=O)(OCCSC(=O)C(C)(C)C)C(F)(F)c1ccc2sc(C(=O)N[C@H]3C[C@@H]4C[C@@H]4C[C@H]4CC[C@@H](C(=O)N5CC(C(=O)N6CCOCC6)C5)N4C3=O)cc2c1` (stereo partly drawn) [Compound 138, S-(2-(((difluoro(2-(((3S,6S,7aS, 8aR,9aR)-3-(3-(morpholine-4-carbonyl)azetidine-1-carbonyl)-5-oxodecahydro-1H-cyclopropa [d]pyrrolo[1,2-a]azocin-6-yl)carbamoyl)benzo [b]thiophen-5-yl)methyl)(2-(pivaloylthio)ethoxy)phosphoryl)oxy)ethyl) butanethioate], the IC50 in experiment [1] is 1000 to 3000 nM; in experiment [2], below 100 nM.
As for `CC(C)(C)C(=O)OCOP(=O)(OCOC(=O)C(C)(C)C)C(F)(F)c1ccc2sc(C(=O)N[C@H]3C[C@H]4C[C@H]4C[C@H]4CC[C@@H](C(=O)N5C[C@@H](C#N)[C@H](c6ccccc6)C5)N4C3=O)cc2c1` [Compound 140, ((((2-(((3S,6S,7aR, 8aS,9aR)-3-((3S,4R)-3-cyano-4-phenyl-pyrrolidine-1-carbonyl)-5-oxodecahydro-1H-cyclopropa [d]pyrrolo[1,2-a]azocin-6-yl)carbamoyl)benzo[b]thiophen-5-yl)difluoromethyl)phosphoryl)bis(oxy)) bis(methylene) bis(2,2-dimethylpro-panoate)], the IC50 in experiment [1] and in experiment [2] was below 100 nM throughout.
Take `CC(C)CC(=O)SCCOP(=O)(OCOC(=O)OC(C)C)C(F)(F)c1ccc2sc(C(=O)N[C@H]3C[C@@H]4C[C@@H]4C[C@H]4CC[C@@H](C(=O)N5CC(C(=O)N6CCOCC6)C5)N4C3=O)cc2c1` (stereo partly drawn) [Compound 141, S-(2-(((difluoro(2-(((3S,6S,7aS, 8aR,9aR)-3-(3-(morpholine-4-carbonyl)azetidine-1-carbonyl)-5-oxodecahydro-1H-cyclopropa [d]pyrrolo[1,2-a]azocin-6-yl)carbamoyl)benzo[b]thiophen-5-yl)methyl)(((iso-propoxy-carbonyl)oxy)methoxy)phos-phoryl)oxy)ethyl) 3-methylbutane thioate]: the IC50 is 1000 to 3000 nM in experiment [1] and below 100 nM in experiment [2].
For `CC(=O)N1C[C@@H](F)[C@@H](NC(=O)[C@@H]2CC[C@@H]3C[C@@H]4C[C@@H]4C[C@H](NC(=O)c4cc5cc(C(F)(F)P(=O)(OCCSC(=O)CC(C)C)OCCSC(=O)CC(C)C)ccc5s4)C(=O)N32)C1` [Compound 142, S,S′-(((((2-(((3S,6S,7aR, 8aS,9aR)-3-(((3S,4R)-1-acetyl-4-fluoropyrrolidin-3-yl)carbamoyl)-5-oxodecahydro-1H-cyclopropa [d]pyrrolo[1,2-a]azocin-6-yl)carbamoyl)benzo[b]thiophen-5-yl)difluoromethyl)phosphoryl)bis(oxy))bis(ethane-2,1-diyl)) bis(3-methylbutane thioate)], the IC50 is 1000 to 3000 nM in experiment [1] and below 100 nM in experiment [2].
With `C[C@@H](NP(=O)(Cc1ccc2sc(C(=O)N[C@H]3C[C@@H]4C[C@@H]4C[C@H]4CC[C@@H](C(=O)N5CC(C(=O)N6CCOCC6)C5)N4C3=O)cc2c1)Oc1ccccc1)C(=O)OCc1ccccc1` (stereo partly drawn) [Compound 143, benzyl (((2-(((3S,6S,7aS, 8aR,9aR)-3-(3-(morpholine-4-carbonyl)azetidine-1-carbonyl)-5-oxodecahydro-1H-cyclopropa [d]pyrrolo[1,2-a]azocin-6-yl)carbamoyl)benzo[b]thiophen-5-yl)methyl) (phenoxy)phosphoryl)-D-alaninate], the IC50 in experiment [1] was above 3000 nM; in experiment [2], 100 to 1000 nM.
Consider `CC(C)(C)C(=O)SCCOP(=O)(Cc1ccc2sc(C(=O)N[C@H]3C[C@@H]4C[C@@H]4C[C@H]4CC[C@@H](C(=O)N5CC(C(=O)N6CCOCC6)C5)N4C3=O)cc2c1)OCCSC(=O)C(C)(C)C` [Compound 144, S,S′-(((((2-(((3S,6S,7aS, 8aR,9aR)-3-(3-(morpholine-4-carbonyl)azetidine-1-carbonyl)-5-oxodecahydro-1H-cyclopropa[d]pyrrolo[1,2-a]azocin-6-yl)carbamoyl)benzo[b]thiophen-5-yl)methyl)phosphoryl)bis(oxy))bis(ethane-2,1-diyl)) bis(2,2-dimethyl-propanethioate)], for which the results for the IC50 in experiment [1] and in experiment [2] were above 3000 nM and 100 to 1000 nM, respectively.
In the case of `CC(C)(C)C(=O)OCOP(=O)(OCOC(=O)C(C)(C)C)C(F)(F)c1ccc2sc(C(=O)N[C@H]3C[C@@H]4C[C@@H]4C[C@H]4CC[C@@H](C(=O)N5CC(C(=O)N6CCOCC6)C5)N4C3=O)cc2c1` [Compound 145, (((difluoro(2-(((3S,6S,7aS, 8aR,9aR)-3-(3-(morpholine-4-carbonyl)azetidine-1-carbonyl)-5-oxodecahydro-1H-cyclopropa [d]pyrrolo[1,2-a]azocin-6-yl)carbamoyl)benzo[b]thiophen-5-yl)methyl)phosphoryl)bis(oxy)) bis(methylene) bis(2,2-dimethyl-propanoate)], the IC50 in experiment [1] was 1000 to 3000 nM; in experiment [2] it was below 100 nM.
In the case of `CC(C)(CO)C(=O)SCCOP(=O)(Cc1ccc2sc(C(=O)N[C@H]3C[C@@H]4C[C@@H]4C[C@H]4CC[C@@H](C(=O)N5CC(n6ccnc6)C5)N4C3=O)cc2c1)OCCSC(=O)C(C)(C)CO` [Compound 146, S,S′-(((((2-(((3S,6S,7aS, 8aR,9aR)-3-(3-(1H-imidazol-1-yl)azetidine-1-carbonyl)-5-oxodecahydro-1H-cyclopropa[d]pyrrolo[1,2-a]azocin-6-yl)carbamoyl)benzo[b]thiophen-5-yl)methyl)phosphoryl)bis(oxy))bis(ethane-2,1-diyl)) bis(3-hydroxy-2,2-dimethyl-propanethioate)], the IC50 in experiment [1] and in experiment [2] was above 3000 nM throughout.
